In the test the test system is BBMVE cell monolayer challenged with DutchAβ40. Briefly: Cytokines inhibition study (IL-6, IL-1β, TNF-α ELISA). Type of test: cell-based, bovine. To be noted: 24 hr; TNV=1.74 mg/ml, DutchAβ40=25 μg/ml, cyclophosphamide=3.05 mg/ml. As to the method: At the end of 24 hour treatment, the luminal or abluminal solutions of the control and the treated Transwells® was assayed for IL-6, IL-1β and TNF-α using cytokine enzyme linked immunosorbent assay (ELISA) kit (Thermo Scientific, Rockford, Ill.). The cytokine levels secreted by the control BBMVE cell monolayer incubated with hanks balanced salt solution (HBSS) were used as the baseline values.

As to `O=P1(N(CCCl)CCCl)NCCCO1` (stereo not shown) [cyclophosphamide], the “secretion of IL-6, IL-1β and TNF-α triggered by DutchAβ40, luminal side” value is “significant decrease”.

Values taken from US9950002B2, “Nanoparticles/theranostic vehicles” (Regents of the University of Minnesota, priority 2013, dated 2018).
